From US20140065610A1, “METHOD FOR PREDICTING CLINICAL BENEFIT IN THE TREATMENT OF NEURODEVELOPMENTAL, NEUROLOGICAL OR NEUROPSYCHIATRIC DISORDERS” (priority 2011, published 2014)

How the values were obtained:
Type in all cases: in vivo, human
[1] = test system: adults with schizophrenia with predominantly negative symptoms; test: Phase II GRI schizophrenia trial: PANSS negative symptom factor score responder rate; details: after 8 weeks
Procedure: FIG. 3: Response rates of dichotomized PANSS negative symptom factor score (response defined as ≧20% drop from baseline) at week 8. Shaded background bars are response rates in overall per protocol population. Solid grey bars are response rates in CFHR1 stratified subpopulations using natural cut-off for CFHR1.
(§1) A Phase II study was performed in adults with schizophrenia with predominantly negative symptoms. The individuals were clinically stable and on stable treatment with second generation antipsychotics. The study was conducted at multiple sites in Brazil, France, Germany, Hungary, Japan, Mexico, Poland, Russia, and the US according to ICH Guidelines for Good Clinical Practice (ClinicalTrials.gov Identifier: NCT00616798). The study protocol was approved by the health authorities of each country and the respective ethic committees of each site. All 323 patients had provided written consent to participate in the study and 224 patients had consented to the collection and use of serum samples for exploratory biomarker analysis. After a screening and a 4-week run-in period, patients were randomized to double-blind adjunctive treatment with placebo, 10 mg, 30 mg, or 60 mg of GRI given once a day for a duration of 8 weeks, followed by 4 week follow-up period. Similar percentages of patients in the four treatment arms completed the study.
(§2) Patients were assessed at screening, week −2, baseline, weeks 1, 2, 4, 6, 8, 10 and 12. Assessments included the PANSS, Clinical Global Impression—Severity of Illness (CGI-S) and Clinical Global Impression-Global Improvement (CGI-I) for overall psychopathology 56, CGI-S and CGI-I of Negative Symptoms (CGI-S-N, CGI-I-N) for assessment of negative symptoms only 57, and standard examinations of extrapyramidal symptoms (BAS58, SAS59, AIMS60). The primary efficacy variable assessing effects on negative symptoms was the change from baseline in the PANSS negative symptom factor score 64. Secondary efficacy variables were i) proportion of patients showing a clinical response in negative symptom defined as a 20% change from baseline in the PANSS negative symptom factor score and ii) CGI-I-N. Additional analyses included change in PANSS total score, remaining PANSS factor scores 64 CGI-S and CGI-I.
For the 10 mg arm the response rate in the CFHR1-high group was 88% compared to 69% in the non-stratified group, and for the 30 mg arm the response rate in the CFHR1-high group was 78% compared to 66% in the non-stratified group.

[2] = test system: adults with schizophrenia with predominantly negative symptoms; test: Phase II GRI schizophrenia trial: change of PANSS negative symptom factor score from baseline
Procedure: FIG. 2: Change of PANSS negative symptom factor score from baseline in all patients (FIG. 2(a)) and in CFHR1-low patients (FIG. 2(b)) and CFHR1-high patients (FIG. 2(c)) using natural cutoff for CFHR1. Patients with serum concentration ≦28 ug/ml were classified as CFHR1-low and patients with serum concentration >28 ug/ml were classified as CFHR1-high. Estimates of expected response and standard error bars from MMRM analysis. Dash-dot line and circle Placebo; solid line and squares 10 mg GRI; solid line and upward-pointing triangles 30 mg GRI; dashed line and diamonds 60 mg GRI.
as §1, §2
Results for the overall patient cohort are shown in the top panel, for the CFHR1-low patients in the middle panel and for the CFHR1-high patients in the lower panel. […]

[3] = test system: adults with schizophrenia with predominantly negative symptoms; test: Phase II GRI schizophrenia trial: CGI-I negative symptoms responder rate
Source text: FIG. 4: Response rates of dichotomized CGI-I negative symptoms rating score (response defined as “much improved” or “very much improved”) at week 8. Shaded background bars are response rates in overall per protocol population. Solid grey bars are response rates in CFHR1 stratified subpopulations using natural cut-off for CFHR1.
FIG. 6: Response rates of dichotomized CGI-I negative symptoms rating score (response defined as “much improved” or “very much improved”) at week 8. Shaded background bars are response rates in overall per protocol population. Solid grey bars are response rates in CFHR1 stratified subpopulations using CFHR1/CFH ratio, with L (low) corresponding to CFHR1/CFH ratio below 0.01, M (medium) corresponding to CFHR1/CFH ratio above 0.01 and below 0.08 and with H (high) corresponding to CFHR1/CFH ratio above 0.08.
FIG. 9: Response rates of dichotomized CGI-I negative symptoms rating score (response defined as “much improved” or “very much improved”) at week 8. Shaded background bars are response rates in overall per protocol population from those who had consented for DNA sample. Solid grey bars are response rates in CFHR1 stratified subpopulations using genetic status of CFHR1 allele.
as §1, §2
As a secondary endpoint in the clinical trial the Clinical Global Impression (CGI) improvement of negative symptoms between baseline and week 8 evaluation was used. This outcome measure was treated as a binary variable. […] The analysis was performed on the combined placebo, 10 mg and 30 mg biomarker population using the per protocol (PP) population. Explanatory variables for this analysis are the baseline measurements of all measured proteins, the treatment (placebo or pooled 10 mg/30 mg treatment) and the treatment-protein interaction. A logistic regression model was used as predictor.
For the 10 mg arm the response rate in the CFHR1-high group was 69% compared to 39% in the non-stratified group, and for the 30 mg arm the response rate in the CFHR1-high group was 67% compared to 45% in the non-stratified group. […]

[4] = 10 mg arm, non-stratified group
[5] = 30 mg arm, non-stratified group

C[C@H](Oc1ccc(S(C)(=O)=O)cc1C(=O)N1CCN(c2ncc(C(F)(F)F)cc2F)CC1)C(F)(F)F [GRI, [4-(3-fluoro-5-trifluoromethyl-pyridin-2-yl)-piperazin-1-yl]-[5-methanesulfonyl-2-((S)-2,2,2-trifluoro-1-methyl-ethoxy)-phenyl]-methanone]
response rate, PANSS negative symptom factor score (at least 20% decrease from baseline) ([1]; 10 mg arm, CFHR1-high group): 88%
response rate, PANSS negative symptom factor score (at least 20% decrease from baseline) [1, 4]: 69%
response rate, PANSS negative symptom factor score (at least 20% decrease from baseline) ([1]; 30 mg arm, CFHR1-high group): 78%
response rate, PANSS negative symptom factor score (at least 20% decrease from baseline) [1, 5]: 66%
effect size, change in PANSS negative symptom factor score from baseline ([2]; 10 mg arm, CFHR1-high group (serum CFHR1 >28 ug/ml), 8 weeks, vs placebo): −1.01
effect size, change in PANSS negative symptom factor score from baseline [2, 4]: −0.42
effect size, change in PANSS negative symptom factor score from baseline ([2]; 30 mg arm, CFHR1-high group (serum CFHR1 >28 ug/ml)): −0.76
effect size, change in PANSS negative symptom factor score from baseline [2, 5]: −0.47
response rate, CGI of negative symptoms ([3]; 10 mg arm, CFHR1+/+ group (genetic status)): 57%
response rate, CGI of negative symptoms ([3]; 10 mg arm, CFHR1-high group (natural cut-off 28 ug/ml), week 8): 69%
response rate, CGI of negative symptoms ([3]; 10 mg arm, H subgroup (CFHR1/CFH ratio above 0.08)): 69%
response rate, CGI of negative symptoms ([3]; 10 mg arm, L group (CFHR1/CFH ratio below 0.01), small sample size): 0%
response rate, CGI of negative symptoms ([3]; 10 mg arm, M subgroup (CFHR1/CFH ratio medium)): 19%
response rate, CGI of negative symptoms ([3]; 10 mg arm, non-stratified group of patients who consented for DNA sample): 39%
response rate, CGI of negative symptoms ([3]; 10 mg arm, non-stratified serum subgroup, week 8): 39%
response rate, CGI of negative symptoms ([3]; 30 mg arm, CFHR1+/+ group (genetic status)): 67%
response rate, CGI of negative symptoms ([3]; 30 mg arm, CFHR1-high group (natural cut-off 28 ug/ml), week 8): 67%
response rate, CGI of negative symptoms ([3]; 30 mg arm, H subgroup (CFHR1/CFH ratio above 0.08)): 67%
response rate, CGI of negative symptoms ([3]; 30 mg arm, L group (CFHR1/CFH ratio below 0.01), small sample size): 0%
response rate, CGI of negative symptoms ([3]; 30 mg arm, M subgroup (CFHR1/CFH ratio medium)): 28%
response rate, CGI of negative symptoms ([3]; 30 mg arm, non-stratified group of patients who consented for DNA sample): 46%
response rate, CGI of negative symptoms ([3]; 30 mg arm, non-stratified serum subgroup, week 8): 45%
response rate, CGI of negative symptoms ([3]; 60 mg arm, H subgroup (CFHR1/CFH ratio above 0.08)): 33%
response rate, CGI of negative symptoms ([3]; 60 mg arm, L group (CFHR1/CFH ratio below 0.01), small sample size): 100%
response rate, CGI of negative symptoms ([3]; 60 mg arm, M subgroup (CFHR1/CFH ratio medium)): 25%
response rate, CGI of negative symptoms ([3]; 60 mg arm, non-stratified serum subgroup, week 8): 34%
